Measured values published in US20110034369A1, “Agonists of Bitter Taste Receptors and Uses Thereof” (DEUTSCHES INSTITUT FUR ERNAHRUNGSFORSCHUNG POTSDAM-REHBRUCKE, priority 2004, published 2011).
pEC50: −log10 of the molar value.

Experiments:
Assay type in all cases: cell-based
hTAS2R1 = molecular target: T1, hTAS2R1 (Homo sapiens, UniProt Q9NYW7); assay: FLIPR calcium mobilization, hTAS2R1-transfected HEK-293T/Gα16gust44 cells; conditions: response of hTAS2R1, calcium signal; for threshold: Fluo4-AM, transiently transfected HEK-293T Gα16gust44; for pEC50: dose-response
T1 construct: export tag: amino acids 1-45 of rat somatostatin receptor 3 (N); expressed in transfected cells; host or cells: HEK-293T cells stably expressing the chimeric G-protein subunit Galpha16gust44
T1 sequence (Q9NYW7 1-299): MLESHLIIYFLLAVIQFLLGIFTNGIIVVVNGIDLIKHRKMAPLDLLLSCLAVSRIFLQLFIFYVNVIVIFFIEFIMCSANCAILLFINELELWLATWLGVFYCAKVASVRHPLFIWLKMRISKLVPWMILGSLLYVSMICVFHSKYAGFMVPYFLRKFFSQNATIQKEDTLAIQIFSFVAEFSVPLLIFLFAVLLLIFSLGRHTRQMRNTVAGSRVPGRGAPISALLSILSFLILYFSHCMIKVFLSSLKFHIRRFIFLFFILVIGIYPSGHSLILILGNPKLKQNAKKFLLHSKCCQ
Method: Ligand screening using an automated fluorometric imaging plate reader (Molecular Devices) was essentially done as described (Bufe B. et al. (2002) Nature Genetics 32: 397-401). Briefly: The cells were seeded at a density of 70,000±10,000 cells per well in 96-well microtiter plates. The cDNA of hTAS2R1, hTASR3, hTASR7 and hTASR40 supplemented with an amino terminal export tag corresponding to amino acids 1-45 of rat somatostatin receptor 3 and a carboxy terminal HSV-tag was transiently transfected into HEK-293T cells stably expressing the chimeric G-protein subunit Gα16gust44 (Ueda T. et al. (2003) J. Neurosci. 23: 7376-7380) using Lipofectamine2000 (Invitrogen). […] 24-32 hours after transfection, the cells were then loaded for 1 hour with the calcium sensitive dye Fluo4-AM (2 μg/ml in DMEM, Molecular Probes). Cells were washed 3× in solution C1 (130 mM NaCl, 5 mM KCl, 10 mM Hepes, 2 mM CaCl2, and 10 mM Glucose, pH 7.4). Calcium mobilization was monitored by an automated fluorometric imaging plate reader (Molecular Devices). Ligands (Sigma-Aldrich) were dissolved in C1 solution. All data were collected from experiments carried out in triplicate. For dose-response curves, the obtained calcium signals were corrected for and normalized to background fluorescence ΔF/F=(F−F0)/F0 and baseline noise was subtracted.

hTAS2R3 = molecular target: T2, hTAS2R3 (Homo sapiens, UniProt Q9NYW6); assay: FLIPR calcium mobilization, hTAS2R3-transfected HEK-293T/Gα16gust44 cells; conditions: response of hTAS2R3; calcium signal
T2 construct: export tag: amino acids 1-45 of rat somatostatin receptor 3 (N); expressed in transfected cells; host or cells: HEK-293T cells stably expressing the chimeric G-protein subunit Galpha16gust44
T2 sequence (Q9NYW6 1-316): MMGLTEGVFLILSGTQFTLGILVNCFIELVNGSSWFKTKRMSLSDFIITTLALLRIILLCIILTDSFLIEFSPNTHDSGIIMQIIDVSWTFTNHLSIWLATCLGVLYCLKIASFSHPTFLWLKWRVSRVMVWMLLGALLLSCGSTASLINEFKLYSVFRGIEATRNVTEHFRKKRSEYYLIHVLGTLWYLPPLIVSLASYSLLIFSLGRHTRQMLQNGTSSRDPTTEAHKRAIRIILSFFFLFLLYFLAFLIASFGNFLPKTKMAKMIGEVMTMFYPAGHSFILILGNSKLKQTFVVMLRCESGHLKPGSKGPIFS
Method: (§1) Ligand screening using an automated fluorometric imaging plate reader (Molecular Devices) was essentially done as described (Bufe B. et al. (2002) Nature Genetics 32: 397-401). Briefly: The cells were seeded at a density of 70,000±10,000 cells per well in 96-well microtiter plates. The cDNA of hTAS2R1, hTASR3, hTASR7 and hTASR40 supplemented with an amino terminal export tag corresponding to amino acids 1-45 of rat somatostatin receptor 3 and a carboxy terminal HSV-tag was transiently transfected into HEK-293T cells stably expressing the chimeric G-protein subunit Gα16gust44 (Ueda T. et al. (2003) J. Neurosci. 23: 7376-7380) using Lipofectamine2000 (Invitrogen). Expression rates were determined to be 20% for hTAS2R1; 35% for hTAS2R3, 14% for hTAS2R7 and 29% for hTAS2R40 by indirect immunocyclochemistry using monoclonal anti-HSV antibodies (Novagen) and secondary anti-mouse IgG antibodies coupled to Alexa 488 (Molecular probes) see (FIG. 1). 24-32 hours after transfection, the cells were then loaded for 1 hour with the calcium sensitive dye Fluo4-AM (2 μg/ml in DMEM, Molecular Probes). […] Calcium mobilization was monitored by an automated fluorometric imaging plate reader (Molecular Devices). […] For dose-response curves, the obtained calcium signals were corrected for and normalized to background fluorescence ΔF/F=(F−F0)/F0 and baseline noise was subtracted.

hTAS2R7 = molecular target: T3, hTAS2R7 (Homo sapiens, UniProt Q9NYW3); assay: FLIPR calcium mobilization, hTAS2R7-transfected HEK-293T/Gα16gust44 cells; conditions: response of hTAS2R7, calcium signal
T3 construct: export tag: amino acids 1-45 of rat somatostatin receptor 3 (N); expressed in transfected cells; host or cells: HEK-293T cells stably expressing the chimeric G-protein subunit Galpha16gust44
T3 sequence (Q9NYW3 1-318): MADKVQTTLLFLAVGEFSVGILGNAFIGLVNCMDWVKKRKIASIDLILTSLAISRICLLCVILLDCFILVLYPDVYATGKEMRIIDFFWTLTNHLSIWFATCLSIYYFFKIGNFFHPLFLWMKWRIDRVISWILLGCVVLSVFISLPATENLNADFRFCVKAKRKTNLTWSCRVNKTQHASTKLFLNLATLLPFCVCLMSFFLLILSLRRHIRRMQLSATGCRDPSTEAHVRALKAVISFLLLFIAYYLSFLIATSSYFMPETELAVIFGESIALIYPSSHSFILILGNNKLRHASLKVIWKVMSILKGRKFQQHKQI
Method: Ligand screening using an automated fluorometric imaging plate reader (Molecular Devices) was essentially done as described (Bufe B. et al. (2002) Nature Genetics 32: 397-401). Briefly: The cells were seeded at a density of 70,000±10,000 cells per well in 96-well microtiter plates. The cDNA of hTAS2R1, hTASR3, hTASR7 and hTASR40 supplemented with an amino terminal export tag corresponding to amino acids 1-45 of rat somatostatin receptor 3 and a carboxy terminal HSV-tag was transiently transfected into HEK-293T cells stably expressing the chimeric G-protein subunit Gα16gust44 (Ueda T. et al. (2003) J. Neurosci. 23: 7376-7380) using Lipofectamine2000 (Invitrogen). Expression rates were determined to be 20% for hTAS2R1; 35% for hTAS2R3, 14% for hTAS2R7 and 29% for hTAS2R40 by indirect immunocyclochemistry using monoclonal anti-HSV antibodies (Novagen) and secondary anti-mouse IgG antibodies coupled to Alexa 488 (Molecular probes) see (FIG. 1). 24-32 hours after transfection, the cells were then loaded for 1 hour with the calcium sensitive dye Fluo4-AM (2 μg/ml in DMEM, Molecular Probes). Cells were washed 3× in solution C1 (130 mM NaCl, 5 mM KCl, 10 mM Hepes, 2 mM CaCl2, and 10 mM Glucose, pH 7.4). Calcium mobilization was monitored by an automated fluorometric imaging plate reader (Molecular Devices). Ligands (Sigma-Aldrich) were dissolved in C1 solution. All data were collected from experiments carried out in triplicate. For dose-response curves, the obtained calcium signals were corrected for and normalized to background fluorescence ΔF/F=(F−F0)/F0 and baseline noise was subtracted.

hTAS2R40 = molecular target: T4, hTAS2R40 (Homo sapiens, UniProt P59535); assay: FLIPR calcium mobilization, hTAS2R40-transfected HEK-293T/Gα16gust44 cells; conditions: response of hTAS2R40; calcium signal
T4 construct: export tag: amino acids 1-45 of rat somatostatin receptor 3 (N); expressed in transfected cells; host or cells: HEK-293T cells stably expressing the chimeric G-protein subunit Galpha16gust44
T4 sequence (P59535 whole entry, the tested form may be a part): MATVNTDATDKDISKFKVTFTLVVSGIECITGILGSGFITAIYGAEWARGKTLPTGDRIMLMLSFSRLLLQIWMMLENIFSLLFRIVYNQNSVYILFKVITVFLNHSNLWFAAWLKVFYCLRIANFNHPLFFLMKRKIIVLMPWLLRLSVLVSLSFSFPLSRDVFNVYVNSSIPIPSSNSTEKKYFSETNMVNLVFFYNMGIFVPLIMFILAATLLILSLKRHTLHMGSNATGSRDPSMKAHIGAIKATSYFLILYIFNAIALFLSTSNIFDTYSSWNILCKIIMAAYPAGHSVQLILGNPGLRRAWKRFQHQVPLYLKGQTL
Method: as §1

| Molecule | max. amplitude (hTAS2R1) | threshold (hTAS2R1) | pEC50 (hTAS2R1) | max. amplitude (hTAS2R7) | threshold (hTAS2R7) | other results |
| --- | --- | --- | --- | --- | --- | --- |
| O=C(N[C@H](CO)[C@H](O)c1ccc([N+](=O)[O-])cc1)C(Cl)Cl [Chloramphenicol, chloramphenicol] | 9000 counts | ~0.1 mM | 3.70 | – | – | – |
| CN1CC(=O)NC1=N [Creatinine, creatinine] | – | – | – | 3000 counts | ~10 mM | max. amplitude (hTAS2R3): 5000 counts; threshold (hTAS2R3): ~30 mM |
| O=C(O)c1cc(=O)c2c(OCC(O)COc3cccc4oc(C(=O)O)cc(=O)c34)cccc2o1 [Cromolyn, cromolyn] | – | – | – | 3000 counts | ~1 mM | pEC50 (hTAS2R7; dose-response): 2.05 |
| C=C(C)[C@@H]1[C@H]2OC(=O)[C@@H]1[C@]1(O)C[C@H]3O[C@]34C(=O)O[C@H]2[C@]14C [Picrotoxinin, picrotoxinin] | 2000 counts | ~0.0001 mM | – | – | – | – |

Continued, in another order:

| max. amplitude (hTAS2R1) | threshold (hTAS2R1) | pEC50 (hTAS2R1) | Molecule | max. amplitude (hTAS2R7) | threshold (hTAS2R7) | other results |
| --- | --- | --- | --- | --- | --- | --- |
| 3000 counts | ~0.03 mM | – | COC(=O)[C@@H]1[C@H]2C[C@H]3c4[nH]c5ccccc5c4CCN3C[C@@H]2CC[C@@H]1O [Yohimbine, yohimbine] | – | – | – |
| 9000 counts | ~0.0001 mM | 6.05 | humulone | – | – | max. amplitude (hTAS2R40): 6000 counts; threshold (hTAS2R40): <0.00003 mM |
